Assay: Example 2: liver biomarkers (albumin, gamma glutamyl transferase, total bilirubin, ALT, AST, ALP) in short bowel syndrome patients, every four weeks for 24 weeks; also sorted by >10% change from baseline
Type: in vivo, Human
Description: To further confirm the results of Example 1, a further study was conducted involving more individuals and additional diagnostic biomarkers. Human patients with short bowel syndrome were divided into two groups: a control group (43 total individuals) to receive placebo, and an experimental group (42 total individuals) to receive teduglutide at 0.05 mg/kg/day throughout the study. Patients were treated by subcutaneous injection of placebo or the appropriate dose of teduglutide. Known biomarkers of liver function were monitored every four weeks, for 24 weeks. The liver biomarkers tested included albumin, gamma glutamyl transferase, total bilirubin, ALT and AST and ALP. Before administration of placebo or teduglutide, diagnostic biomarker levels were tested to establish a baseline for each individual.
To determine the effect of GLP-2 on the levels of the diagnostic biomarkers, the average level of each biomarker was measured for the placebo and teduglutide treated groups for each visit. Furthermore, the average change from baseline was calculated using the established baseline values. For FIGS. 17-28, p-values were calculated using the t-test.
P values are provided, which were calculated for each distribution of biomarker changes for each week using the chi-squared test.

[1] = Endpoint (last assessment after start of treatment), 0.05 mg/kg/d, m = 42
[2] = Endpoint (last assessment after the start of treatment), 0.05 mg/kg/d

Structure (SMILES): CC[C@H](C)[C@H](NC(=O)[C@H](Cc1ccccc1)NC(=O)[C@H](CC(=O)O)NC(=O)[C@H](CCCNC(=N)N)NC(=O)[C@H](C)NC(=O)[C@H](C)NC(=O)[C@H](CC(C)C)NC(=O)[C@H](CC(N)=O)NC(=O)[C@H](CC(=O)O)NC(=O)[C@H](CC(C)C)NC(=O)[C@@H](NC(=O)[C@@H](NC(=O)[C@H](CC(N)=O)NC(=O)[C@H](CCSC)NC(=O)[C@H](CCC(=O)O)NC(=O)[C@H](CC(=O)O)NC(=O)[C@H](CO)NC(=O)[C@H](Cc1ccccc1)NC(=O)[C@H](CO)NC(=O)CNC(=O)[C@H](CC(=O)O)NC(=O)CNC(=O)[C@@H](N)Cc1c[nH]cn1)[C@@H](C)O)[C@@H](C)CC)C(=O)N[C@@H](CC(N)=O)C(=O)N[C@@H](Cc1c[nH]c2ccccc12)C(=O)N[C@@H](CC(C)C)C(=O)N[C@H](C(=O)N[C@@H](CCC(N)=O)C(=O)N[C@H](C(=O)N[C@@H](CCCCN)C(=O)N[C@H](C(=O)N[C@H](C(=O)N[C@@H](CC(=O)O)C(=O)O)[C@@H](C)O)[C@@H](C)CC)[C@@H](C)O)[C@@H](C)CC [teduglutide]
- level of diagnostic biomarkers elevated in liver dysfunction vs placebo cohort (0.05 mg/kg/day, Table 3, FIGS. 17-20 and 23-28): lower level, on average
- likelihood of >10% decrease in liver biomarkers vs placebo (0.05 mg/kg/day, Table 4): more likely to experience a >10% decrease
- likelihood of >10% increase in liver biomarkers vs placebo (0.05 mg/kg/day, Table 4): less likely to experience a >10% increase
- measured level of albumin relative to placebo cohort (0.05 mg/kg/day, as treatment progressed, FIGS. 21 and 22): became elevated
- ALT: subjects Within 10% of Baseline [1]: 12 (28.6%) n (%)
- ALT: subjects with >10% decrease from Baseline [1]: 25 (59.5%) n (%)
- ALT: subjects with >10% increase from Baseline [1]: 5 (11.9%) n (%)
- AST: subjects Within 10% of Baseline [1]: 11 (26.2%) n (%)
- AST: subjects with >10% decrease from Baseline [1]: 25 (59.5%) n (%)
- AST: subjects with >10% increase from Baseline [1]: 6 (14.3%) n (%)
- Albumin: subjects Within 10% of Baseline [1]: 40 (95.2%) n (%)
- Albumin: subjects with >10% decrease from Baseline [1]: 2 (4.8%) n (%)
- Albumin: subjects with >10% increase from Baseline [1]: 0 n (%)
- Alkaline Phosphatase: subjects Within 10% of Baseline [1]: 12 (28.6%) n (%)
- Alkaline Phosphatase: subjects with >10% decrease from Baseline [1]: 24 (57.1%) n (%)
- Alkaline Phosphatase: subjects with >10% increase from Baseline [1]: 6 (14.3%) n (%)
- Bilirubin: subjects Within 10% of Baseline [1]: 8 (19.0%) n (%)
- Bilirubin: subjects with >10% decrease from Baseline [1]: 27 (64.3%) n (%)
- Bilirubin: subjects with >10% increase from Baseline [1]: 7 (16.7%) n (%)
- ALKALINE PHOSPHATASE Change from Baseline Median [2]: −22 U/L
- ALT Change from Baseline, Max [2]: 21 U/L
- ALT Change from Baseline, Median [2]: −4 U/L
- ALT Change from Baseline, Min [2]: −60 U/L
- ALT Observed Value, Max [2]: 149 U/L
- ALT Observed Value, Mean [2]: 31.0 U/L
- ALT Observed Value, Min [2]: 7 U/L
- AST Change from Baseline, Max [2]: 14 U/L
- AST Change from Baseline, Mean [2]: −5.4 U/L
- AST Change from Baseline, Median [2]: −3 U/L
- AST Change from Baseline, Min [2]: −47 U/L
- AST Observed Value, Max [2]: 77 U/L
- AST Observed Value, Mean [2]: 27.0 U/L
- AST Observed Value, Median [2]: 24 U/L
- AST Observed Value, Min [2]: 11 U/L
- Albumin Change from Baseline, Max [2]: 3 g/L
- Albumin Change from Baseline, Mean [2]: -0.5 g/L
- Albumin Change from Baseline, Median [2]: 0 g/L
- Albumin Change from Baseline, Min [2]: -8 g/L
- Albumin Observed Value, Max [2]: 48 g/L
- Albumin Observed Value, Median [2]: 42 g/L
- Albumin Observed Value, Min [2]: 33 g/L
- Alkaline Phosphatase Change from Baseline, Max [2]: 33 U/L
- Alkaline Phosphatase Change from Baseline, Min [2]: −122 U/L
- Alkaline Phosphatase Observed Value, Max [2]: 328 U/L
- Alkaline Phosphatase Observed Value, Min [2]: 49 U/L
- Bilirubin Change from Baseline, Max [2]: 3.4 µmol/L
- Bilirubin Change from Baseline, Min [2]: -26.1 µmol/L
- Bilirubin Observed Value, Max [2]: 31.3 µmol/L
- Bilirubin Observed Value, Min [2]: 2.5 µmol/L
- Gamma Glutamyl Transferase Change from Baseline, Max [2]: 46 U/L
- Gamma Glutamyl Transferase Change from Baseline, Median [2]: −6 U/L
- Gamma Glutamyl Transferase Change from Baseline, Min [2]: −144 U/L
- Gamma Glutamyl Transferase Observed Value, Max [2]: 228 U/L
- Gamma Glutamyl Transferase Observed Value, Median [2]: 42 U/L
- Gamma Glutamyl Transferase Observed Value, Min [2]: 7 U/L
- ALKALINE PHOSPHATASE Change from Baseline Median (Week 2, 0.05 mg/kg/d): −8 U/L
- ALT Change from Baseline, Max (Week 2, 0.05 mg/kg/d): 48 U/L
- ALT Change from Baseline, Mean (Week 2, 0.05 mg/kg/d): −8.9 U/L
- ALT Change from Baseline, Median (Week 2, 0.05 mg/kg/d): −5.5 U/L
- ALT Change from Baseline, Min (Week 2, 0.05 mg/kg/d): −58 U/L
- ALT Observed Value, Max (Week 2, 0.05 mg/kg/d): 142 U/L
- ALT Observed Value, Min (Week 2, 0.05 mg/kg/d): 9 U/L
- AST Change from Baseline, Max (Week 2, 0.05 mg/kg/d): 22 U/L
- AST Change from Baseline, Mean (Week 2, 0.05 mg/kg/d): −3.6 U/L
- AST Change from Baseline, Median (Week 2, 0.05 mg/kg/d): −3 U/L
- AST Change from Baseline, Min (Week 2, 0.05 mg/kg/d): −21 U/L
- AST Observed Value, Max (Week 2, 0.05 mg/kg/d): 78 U/L
- AST Observed Value, Mean (Week 2, 0.05 mg/kg/d): 29.0 U/L
- AST Observed Value, Min (Week 2, 0.05 mg/kg/d): 11 U/L
- Albumin Change from Baseline, Max (Week 2, 0.05 mg/kg/d): 3 g/L
- Albumin Change from Baseline, Mean (Week 2, 0.05 mg/kg/d): -0.9 g/L
- Albumin Change from Baseline, Median (Week 2, 0.05 mg/kg/d): -1 g/L
- Albumin Change from Baseline, Min (Week 2, 0.05 mg/kg/d): -5 g/L
- Albumin Observed Value, Max (Week 2, 0.05 mg/kg/d): 47 g/L
- Albumin Observed Value, Median (Week 2, 0.05 mg/kg/d): 42 g/L
- Albumin Observed Value, Min (Week 2, 0.05 mg/kg/d): 35 g/L
- Alkaline Phosphatase Change from Baseline, Max (Week 2, 0.05 mg/kg/d): 27 U/L
- Alkaline Phosphatase Change from Baseline, Min (Week 2, 0.05 mg/kg/d): −76 U/L
- Alkaline Phosphatase Observed Value, Max (Week 2, 0.05 mg/kg/d): 298 U/L
- Alkaline Phosphatase Observed Value, Min (Week 2, 0.05 mg/kg/d): 53 U/L
- Bilirubin Change from Baseline, Max (Week 2, 0.05 mg/kg/d): 8.6 µmol/L
- Bilirubin Change from Baseline, Min (Week 2, 0.05 mg/kg/d): -18.2 µmol/L
- Bilirubin Observed Value, Max (Week 2, 0.05 mg/kg/d): 57.4 µmol/L
- Bilirubin Observed Value, Min (Week 2, 0.05 mg/kg/d): 2.4 µmol/L
- Gamma Glutamyl Transferase Change from Baseline, Max (Week 2, 0.05 mg/kg/d): 117 U/L
- Gamma Glutamyl Transferase Change from Baseline, Mean (Week 2, 0.05 mg/kg/d): 7.4 U/L
- Gamma Glutamyl Transferase Change from Baseline, Median (Week 2, 0.05 mg/kg/d): 2.5 U/L
- Gamma Glutamyl Transferase Change from Baseline, Min (Week 2, 0.05 mg/kg/d): −48 U/L
- Gamma Glutamyl Transferase Observed Value, Max (Week 2, 0.05 mg/kg/d): 279 U/L
- Gamma Glutamyl Transferase Observed Value, Min (Week 2, 0.05 mg/kg/d): 11 U/L
- ALT: subjects Within 10% of Baseline (Week 2, 0.05 mg/kg/d, m = 40): 10 (25.0%) n (%)
- ALT: subjects with >10% decrease from Baseline (Week 2, 0.05 mg/kg/d, m = 40): 23 (57.5%) n (%)
- ALT: subjects with >10% increase from Baseline (Week 2, 0.05 mg/kg/d, m = 40): 7 (17.5%) n (%)
- AST: subjects Within 10% of Baseline (Week 2, 0.05 mg/kg/d, m = 40): 15 (37.5%) n (%)
- AST: subjects with >10% decrease from Baseline (Week 2, 0.05 mg/kg/d, m = 40): 20 (50.0%) n (%)
- AST: subjects with >10% increase from Baseline (Week 2, 0.05 mg/kg/d, m = 40): 5 (12.5%) n (%)
- Albumin: subjects Within 10% of Baseline (Week 2, 0.05 mg/kg/d, m = 40): 37 (92.5%) n (%)
- Albumin: subjects with >10% decrease from Baseline (Week 2, 0.05 mg/kg/d, m = 40): 3 (7.5%) n (%)
- Albumin: subjects with >10% increase from Baseline (Week 2, 0.05 mg/kg/d, m = 40): 0 n (%)
- Alkaline Phosphatase: subjects Within 10% of Baseline (Week 2, 0.05 mg/kg/d, m = 40): 19 (47.5%) n (%)
- Alkaline Phosphatase: subjects with >10% decrease from Baseline (Week 2, 0.05 mg/kg/d, m = 40): 15 (37.5%) n (%)
- Alkaline Phosphatase: subjects with >10% increase from Baseline (Week 2, 0.05 mg/kg/d, m = 40): 6 (15.0%) n (%)

From patent US20130157954A1, “METHODS FOR TREATMENT OR PROPHYLAXIS OF KIDNEY OR LIVER DYSFUNCTION” (NPS PHARMACEUTICALS, INC., priority 2010, published 2013)
